Reference: patent US11191762B2, “Alkyl substituted triazole compounds as agonists of the APJ Receptor” (priority 2016, dated 2021)

Biological target: human APJ-AT1R (angiotensin Type 1) double stable CHO cell line (Homo sapiens (Human), UniProt P35414)
Experiment: IP1 accumulation (TR-FRET), AngII cooperativity, APJ-AT1R double stable cells
Type: cell-based
Details: APJ small molecule agonists in the presence of AngII
Protocol: Single and double stable recombinant cell lines were generated for human APJ and the AT1R receptor in CHO K1 cells tagged either with FLAG or hemagglutinin (HA) tag. Briefly, the CHO-K1 APJ/AT1R cells were seeded in culture medium of DMEM-F12 and 10% FBS at a density of 15 k/well in a 96 well plate overnight. The next day, the culture medium was replaced with medium containing no serum for 4 h. The compound AngII at a range of concentrations (1 pM-10 μM) with or without different concentrations of APJ agonists were diluted in stimulation buffer and added to the cell plate. The plate was sealed and incubated for 1 h. This was followed by addition of IP-d2 conjugate followed by europium cryptate antibody conjugate into the wells. The plate was sealed, followed with incubation for 2 h at RT. Time-resolved fluorescence resonance energy (TR-FRET) at 620 nm and 665 nm was measured after 2 h with an Envision reader. The signal ratios and delta F were calculated and the amount of IP1 produced was inversely proportional to the TR-FRET ratio, 665/620 nm.

Chain of human APJ-AT1R (angiotensin Type 1) double stable CHO cell line (P35414 whole entry): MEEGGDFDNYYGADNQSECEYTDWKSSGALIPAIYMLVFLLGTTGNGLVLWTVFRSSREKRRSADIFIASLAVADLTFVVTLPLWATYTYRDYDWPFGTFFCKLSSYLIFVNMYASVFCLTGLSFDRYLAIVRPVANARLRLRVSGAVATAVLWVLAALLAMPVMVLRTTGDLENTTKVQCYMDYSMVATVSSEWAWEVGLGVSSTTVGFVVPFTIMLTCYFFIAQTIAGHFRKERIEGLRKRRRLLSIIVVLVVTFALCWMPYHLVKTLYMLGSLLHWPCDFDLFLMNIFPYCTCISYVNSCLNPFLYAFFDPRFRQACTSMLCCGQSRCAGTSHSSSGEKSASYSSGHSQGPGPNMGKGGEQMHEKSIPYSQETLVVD

Compound: CCCCc1nc(Cl)c(CO)n1Cc1ccc(-c2ccccc2-c2nn[nH]n2)cc1 [losartan]
- effect of losartan on APJ agonist induced cooperativity: relieved this cooperativity
